Data taken from patent US8148391B2 (Cephalon, Inc., priority 2006, dated 2012).
Read-outs that look alike come from different tables or passages of the source.

Columns and labels:
[1] = target: T1, c-Met (cytoplasmic domain) (Homo sapiens, UniProt P08581); test: c-Met Kinase Assay (same methods as for ALK, with modifications); assay type: biochemical
T1 construct: 10 ng/mL c-Met (cytoplasmic domain, Invitrogen Corporation #PV3143); purchased Invitrogen Corporation PV3143
Procedure, shortened: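 Wells were coated with 10 μg/mL phospholipase C-γ substrate in TBS, and reactions were started with 10 ng/mL c-Met cytoplasmic domain and run at 37° C for 15 minutes. Phosphorylated product was detected with Eu-N1-labeled PT66 antibody. IC50 values came from sigmoidal variable-slope fits of percent inhibition versus log compound concentration.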

[2] = target: T2, baculovirus-expressed ALK (Homo sapiens, UniProt Q9UM73); test: ALK Kinase Assay (ELISA-type, time-resolved fluorescence); assay type: biochemical
T2 construct: host or cells: baculovirus expression system
T2 sequence (Q9UM73 19-1620): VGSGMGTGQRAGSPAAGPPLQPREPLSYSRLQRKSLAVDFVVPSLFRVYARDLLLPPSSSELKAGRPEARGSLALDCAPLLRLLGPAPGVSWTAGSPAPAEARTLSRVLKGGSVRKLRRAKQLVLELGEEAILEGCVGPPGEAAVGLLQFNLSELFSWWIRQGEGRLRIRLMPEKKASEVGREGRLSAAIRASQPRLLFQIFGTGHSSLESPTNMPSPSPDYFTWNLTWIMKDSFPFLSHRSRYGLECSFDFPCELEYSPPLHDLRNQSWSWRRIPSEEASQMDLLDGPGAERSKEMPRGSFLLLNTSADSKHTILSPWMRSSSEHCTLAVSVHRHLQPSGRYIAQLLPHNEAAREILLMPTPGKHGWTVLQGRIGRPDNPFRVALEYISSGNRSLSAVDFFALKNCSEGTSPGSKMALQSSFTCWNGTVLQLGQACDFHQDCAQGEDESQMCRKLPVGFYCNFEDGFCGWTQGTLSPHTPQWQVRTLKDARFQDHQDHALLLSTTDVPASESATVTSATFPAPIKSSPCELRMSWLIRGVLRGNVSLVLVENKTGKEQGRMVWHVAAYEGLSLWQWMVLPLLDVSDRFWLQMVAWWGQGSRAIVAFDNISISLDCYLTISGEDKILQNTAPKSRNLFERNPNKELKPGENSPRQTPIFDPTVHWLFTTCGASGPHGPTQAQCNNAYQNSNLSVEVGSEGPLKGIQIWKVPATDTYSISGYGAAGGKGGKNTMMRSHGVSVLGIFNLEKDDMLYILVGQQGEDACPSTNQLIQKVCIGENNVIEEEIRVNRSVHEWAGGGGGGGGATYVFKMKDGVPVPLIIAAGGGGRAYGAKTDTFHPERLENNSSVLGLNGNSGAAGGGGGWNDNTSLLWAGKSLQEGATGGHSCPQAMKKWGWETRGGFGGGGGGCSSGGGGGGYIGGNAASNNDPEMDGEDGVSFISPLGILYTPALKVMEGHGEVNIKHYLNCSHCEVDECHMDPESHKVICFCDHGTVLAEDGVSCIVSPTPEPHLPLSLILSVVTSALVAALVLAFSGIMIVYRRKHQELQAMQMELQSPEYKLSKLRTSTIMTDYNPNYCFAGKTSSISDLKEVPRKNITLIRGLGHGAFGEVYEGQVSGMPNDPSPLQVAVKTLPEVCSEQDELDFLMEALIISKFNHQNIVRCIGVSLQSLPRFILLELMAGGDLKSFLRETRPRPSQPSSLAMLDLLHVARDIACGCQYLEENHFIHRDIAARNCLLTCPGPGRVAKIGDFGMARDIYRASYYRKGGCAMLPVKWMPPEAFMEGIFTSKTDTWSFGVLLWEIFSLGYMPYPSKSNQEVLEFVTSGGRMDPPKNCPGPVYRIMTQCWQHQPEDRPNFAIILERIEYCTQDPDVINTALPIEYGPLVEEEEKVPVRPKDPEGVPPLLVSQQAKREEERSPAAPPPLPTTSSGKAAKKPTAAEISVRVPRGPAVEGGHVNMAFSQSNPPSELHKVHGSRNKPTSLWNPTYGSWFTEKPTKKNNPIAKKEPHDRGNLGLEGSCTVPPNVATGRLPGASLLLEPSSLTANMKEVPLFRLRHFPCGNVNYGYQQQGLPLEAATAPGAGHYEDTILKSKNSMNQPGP
Procedure, shortened: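 Substrate coating: phospholipase C-γ, 10 μg/mL in TBS. Kinase step: 30 ng/ml ALK, 15 min, 37° C. Detection and analysis: Eu-N1 PT66 antibody, with IC50 fitted as a sigmoidal variable-slope dose-response curve.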

[3] = 1 μM ATP (Km level), 10 ng/mL c-Met, read-out: cMet Activity (c-Met kinase inhibition, IC50 class)
[4] = 1 μM ATP (Km level), 30 ng/ml ALK, 37° C., 15 minutes, read-out: ALK Activity (ALK kinase inhibition, IC50 class)
[5] = c-Met kinase inhibition, 1 μM ATP, read-out: cMet Activity
[6] = ALK kinase inhibition, 1 μM ATP, read-out: ALK Activity
[7] = c-Met kinase inhibition, 1 μM ATP (Km level), read-out: cMet Activity
[8] = ALK kinase inhibition, 1 μM ATP (Km level), read-out: ALK Activity
[9] = 1 μM ATP (Km level), read-out: cMet Activity (c-Met Kinase Inhibition, IC50)
[10] = 1 μM ATP (Km level), read-out: ALK Activity (ALK Kinase Inhibition, IC50)

T1 sequence (P08581 956-1390 limits assumed): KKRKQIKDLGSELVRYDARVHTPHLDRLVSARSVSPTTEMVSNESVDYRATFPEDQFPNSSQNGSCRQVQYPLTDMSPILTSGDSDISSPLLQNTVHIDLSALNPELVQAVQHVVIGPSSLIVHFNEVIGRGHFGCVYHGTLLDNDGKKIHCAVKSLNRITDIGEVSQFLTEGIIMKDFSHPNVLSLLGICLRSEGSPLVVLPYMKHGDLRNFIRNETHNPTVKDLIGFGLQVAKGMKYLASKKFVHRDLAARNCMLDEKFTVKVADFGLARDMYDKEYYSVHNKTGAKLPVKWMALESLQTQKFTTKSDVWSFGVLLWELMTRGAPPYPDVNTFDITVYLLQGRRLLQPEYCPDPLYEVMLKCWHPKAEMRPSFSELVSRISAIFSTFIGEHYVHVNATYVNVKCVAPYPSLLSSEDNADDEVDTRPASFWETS

| Compound | IC50 [1, 3] | IC50 [2, 4] | IC50 [1, 5] | IC50 [2, 6] | also measured |
| --- | --- | --- | --- | --- | --- |
| CNC(=O)CN1CCc2cc(Nc3ncc(Cl)c(N[C@H]4[C@@H](C(N)=O)[C@@H]5C=C[C@H]4C5)n3)c(OC)cc2CC1 [Example 1124, (1S,2S,3R,4R)-3-[5-Chloro-2-(8-methoxy-3-methylcarbamoylmethyl-2,3,4,5-tetrahydro-1H-benzo[d]azepin-7-ylamino)-pyrimidin-4-ylamino]-bicyclo[2.2.1]hept-5-ene-2-carboxylic acid amide] | > 10000 nM | < 100 nM | – | – | – |
| CC1(C)CCC(=O)Nc2cc(Nc3ncc(Cl)c(Nc4c(F)cccc4C(=O)NCC#N)n3)ccc21 [Example 1080, 2-[5-Chloro-2-(5,5-dimethyl-2-oxo-2,3,4,5-tetrahydro-1H-benzo[b]azepin-8-ylamino)-pyrimidin-4-ylamino]-N-cyanomethyl-3-fluoro-benzamide] | < 100 nM | < 100 nM | – | – | – |
| COc1cc2c(cc1Nc1ncc(Cl)c(Nc3ccccc3S(=O)(=O)N(C)C)n1)CCN(CCN1CCOCC1)C(=O)C2 [Example 1195, 2-{5-Chloro-2-[8-methoxy-3-(2-morpholin-4-yl-ethyl)-2-oxo-2,3,4,5-tetrahydro-1H-benzo[d]azepin-7-ylamino]-pyrimidin-4-ylamino}-N,N-dimethyl-benzenesulfonamide] | 1000 to 10000 nM | < 100 nM | – | – | – |
| 8-[5-Chloro-4-(2-pyrazol-1-yl-phenylamino)-pyrimidin-2-ylamino]-3-methyl-1,3,4,5-tetrahydro-benzo[d]azepin-2-one [Example 1819] | – | – | 1000 to 10000 nM | 1000 to 10000 nM | – |
| CNS(=O)(=O)c1ccccc1Nc1nc(Nc2cccc3c2C(=O)NCCN3)ncc1Cl [Example 171, 2-[5-Chloro-2-(5-oxo-2,3,4,5-tetrahydro-1H-benzo[e][1,4]diazepin-6-ylamino)pyrimidin-4-ylamino]-N-methyl-benzenesulfonamide] | – | – | – | – | IC50 [1, 7]: 1000 to 10000 nM; IC50 [2, 8]: 1000 to 10000 nM |
| COCCN1CCc2cc(Nc3ncc(Cl)c(Nc4ccc(OC)cc4-n4cccn4)n3)c(OC)cc2CC1 [Example 612, 5-Chloro-N*2*-[8-methoxy-3-(2-methoxy-ethyl)-2,3,4,5-tetrahydro-1H-benzo[d]azepin-7-yl]-N*4*-(4-methoxy-2-pyrazol-1-yl-phenyl)-pyrimidine-2,4-diamine] | – | – | – | – | IC50 [1, 9]: > 10000 nM; IC50 [2, 10]: < 100 nM |
| CS(=O)(=O)Nc1ccccc1Nc1nc(Nc2ccc3c(c2)CNC(=O)NC3)ncc1Cl [Example 225, N-{2-[5-Chloro-2-(3-oxo-2,3,4,5-tetrahydro-1H-benzo[e][1,3]diazepin-7-ylamino)-pyrimidin-4-ylamino]-phenyl}-methanesulfonamide] | – | – | – | – | IC50 [1, 7]: 1000 to 10000 nM; IC50 [2, 8]: < 100 nM |
| Cc1cccc(C(=O)NCC#N)c1Nc1nc(Nc2ccc3c(c2)CCCC(=O)N3C)ncc1Cl [Example 1039, 2-[5-Chloro-2-(1-methyl-2-oxo-2,3,4,5-tetrahydro-1H-benzo[b]azepin-7-ylamino)-pyrimidin-4-ylamino]-N-cyanomethyl-3-methyl-benzamide] | 100 to 1000 nM | 1000 to 10000 nM | – | – | – |
| 1-[5-Chloro-2-(3-dimethylcarbamoylmethyl-8-methoxy-2,3,4,5-tetrahydro-1H-benzo[d]azepin-7-ylamino)-pyrimidin-4-ylamino]-cyclopentanecarboxylic acid methylamide [Example 1203] | > 10000 nM | 100 to 1000 nM | – | – | – |
| COCCN1CCc2ccc(Nc3ncc(Cl)c(Nc4cc(C(N)=O)n[nH]4)n3)cc2CC1 [Example 954, 5-{5-Chloro-2-[3-(2-methoxy-ethyl)-2,3,4,5-tetrahydro-1H-3-benzazepin-7-ylamino]-pyrimidin-4-ylamino}-1H-pyrazole-3-carboxylic acid amide] | – | – | – | – | IC50 [1, 9]: 100 to 1000 nM; IC50 [2, 10]: 100 to 1000 nM |
| CCOC(=O)N1C2CCC1c1c(ccc(Nc3ncc(Cl)c(Nc4ccccc4C(=O)NC)n3)c1Cl)C2 (centres unmarked) [Example 75, 3-Chloro-4-[5-chloro-4-(2-methylcarbamoyl-phenylamino)-pyrimidin-2-ylamino]-12-aza-tricyclo[7.2.1.0*2,7*]dodeca-2(7),3,5-triene-12-carboxylic acid ethyl ester] | – | – | – | – | IC50 [1, 7]: 1000 to 10000 nM; IC50 [2, 8]: < 100 nM |
| CCN1C(=O)CCCc2ccc(Nc3ncc(Cl)c(Nc4ccc(OCC#N)cc4)n3)cc21 [Example 1226, {4-[5-Chloro-2-(1-ethyl-2-oxo-2,3,4,5-tetrahydro-1H-1-benzazepin-8-ylamino)-pyrimidin-4-ylamino]-phenoxy}-acetonitrile] | 1000 to 10000 nM | 100 to 1000 nM | – | – | – |
| COc1cc2c(cc1Nc1ncc(Cl)c(N[C@@H]3CCCC[C@H]3NS(C)(=O)=O)n1)CCC(N1CCN(C)CC1)CC2 (single isomer, unassigned) [Example 1102] | < 100 nM | < 100 nM | – | – | – |

Second part, led by results:

| IC50 [1, 3] | IC50 [2, 4] | IC50 [1, 5] | IC50 [2, 6] | Compound | also measured |
| --- | --- | --- | --- | --- | --- |
| – | – | 100 to 1000 nM | 1000 to 10000 nM | CN1Cc2cc(Nc3ncc(Cl)c(Nc4ccccc4-c4nccn4C)n3)ccc2CCC1=O [Example 1802, 8-{5-Chloro-4-[2-(1-methyl-1H-imidazol-2-yl)-phenylamino]-pyrimidin-2-ylamino}-2-methyl-1,2,4,5-tetrahydro-benzo[c]azepin-3-one] | – |
| – | – | 100 to 1000 nM | < 100 nM | CC1(C)CCC(=O)Nc2cc(Nc3ncc(Cl)c(Nc4ccccc4OCC#N)n3)ccc21 [Example 1578, {2-[5-Chloro-2-(5,5-dimethyl-2-oxo-2,3,4,5-tetrahydro-1H-benzo[b]azepin-8-ylamino)-pyrimidin-4-ylamino]-phenoxy}-acetonitrile] | – |
| > 10000 nM | < 100 nM | – | – | COc1cc2c(cc1Nc1ncc(Cl)c(Nc3ccc(N4CCOCC4)cc3OC)n1)CCN(C(CF)CF)CC2 [Example 1391, Chloro-N(2)-[3-(2-fluoro-1-fluoromethyl-ethyl)-8-methoxy-2,3,4,5-tetrahydro-1H-benzo[d]azepin-7-yl]-N(4)-(2-methoxy-4-morpholin-4-yl-phenyl)-pyrimidine-2,4-diamine] | – |
| – | – | 100 to 1000 nM | 1000 to 10000 nM | CNC(=O)c1cccc(F)c1Nc1nc(Nc2ccc3c(c2)N(C(=O)CN2CCCC2)CCCO3)ncc1Cl [Example 1704, 2-{5-Chloro-2-[9-(2-pyrrolidin-1-yl-acetyl)-6,7,8,9-tetrahydro-5-oxa-9-aza-benzocyclohepten-2-ylamino]-pyrimidin-4-ylamino}-3-fluoro-N-methyl-benzamide] | – |
| – | – | 1000 to 10000 nM | 1000 to 10000 nM | CC(=O)N(C)Cc1ccccc1Nc1nc(Nc2ccc3c(c2)CCOC(=O)N3C)ncc1Cl [Example 1792, N-{2-[5-Chloro-2-(5-methyl-6-oxo-5,6,8,9-tetrahydro-7-oxa-5-aza-benzocyclohepten-2-ylamino)-pyrimidin-4-ylamino]-benzyl}-N-methyl-acetamide] | – |
| – | – | 1000 to 10000 nM | < 100 nM | CNC(=O)c1ccccc1Nc1nc(Nc2cc3c(cc2OC)CCOC(=O)N3C)ncc1Br [Example 1512, 2-[5-Bromo-2-(2-methoxy-5-methyl-6-oxo-5,6,8,9-tetrahydro-7-oxa-5-aza-benzocyclohepten-3-ylamino)-pyrimidin-4-ylamino]-N-methyl-benzamide] | – |
| < 100 nM | < 100 nM | – | – | C#CCNC(=O)c1cccc(F)c1Nc1nc(Nc2ccc3c(c2)NC(=O)C(N)CC3(C)C)ncc1Cl (centres unmarked) [Example 1280, 2-[2-(3-Amino-5,5-dimethyl-2-oxo-2,3,4,5-tetrahydro-1H-1-benzazepin-8-ylamino)-5-chloro-pyrimidin-4-ylamino]-3-fluoro-N-prop-2-ynyl-benzamide] | – |
| – | – | < 100 nM | 100 to 1000 nM | CNC(=O)c1sccc1Nc1nc(Nc2ccc3c(c2)NC(=O)CN(C(C)=O)C3)ncc1Cl [Example 1849, 3-[2-(4-Acetyl-2-oxo-2,3,4,5-tetrahydro-1H-benzo[e][1,4]diazepin-8-ylamino)-5-chloro-pyrimidin-4-ylamino]-thiophene-2-carboxylic acid methyl amide] | – |
| – | – | < 100 nM | 100 to 1000 nM | C#CCNC(=O)c1cccc(F)c1Nc1nc(Nc2ccc3c(c2)N(C(C)=O)CCCO3)ncc1Cl [Example 1713, 2-[2-(9-Acetyl-6,7,8,9-tetrahydro-5-oxa-9-aza-benzocyclohepten-2-ylamino)-5-chloro-pyrimidin-4-ylamino]-3-fluoro-N-prop-2-ynyl-benzamide] | – |
| – | – | < 100 nM | < 100 nM | CNC(=O)c1c(Cl)sc(Cl)c1Nc1nc(Nc2ccc3c(c2)CN(C)C(=O)CC3)ncc1Cl [Example 1807, 2,5-Dichloro-4-[5-chloro-2-(2-methyl-3-oxo-2,3,4,5-tetrahydro-1H-benzo[c]azepin-8-ylamino)-pyrimidin-4-ylamino]-thiophene-3-carboxylic acid methylamide] | – |
| – | – | > 10000 nM | < 100 nM | COc1cc2c(cc1Nc1ncc(Cl)c(N[C@@H]3CCCC[C@H]3NS(C)(=O)=O)n1)CCN(CCN1CCOCC1)CC2 [Example 1533, N-((1R,2R)-2-{5-Chloro-2-[8-methoxy-3-(2-morpholin-4-yl-ethyl)-2,3,4,5-tetrahydro-1H-3-benzazepin-7-ylamino]-pyrimidin-4-ylamino}-cyclohexyl)-methanesulfonamide] | – |
| < 100 nM | < 100 nM | – | – | CCN1C(=O)CCC(C)(C)c2ccc(Nc3ncc(Cl)c(Nc4ccccc4S(=O)(=O)C(C)C)n3)cc21 [Example 1243, 8-{5-Chloro-4-[2-(propane-2-sulfonyl)-phenylamino]-pyrimidin-2-ylamino}-1-ethyl-5,5-dimethyl-1,3,4,5-tetrahydro-1-benzazepin-2-one] | – |
